# Values quoted from earlier work in patent US10857195B2, “Plant extracts for improving sleep” (Kemin Industries, Inc., priority 2014, dated 2020).
# Test system: aging mice
# Conditions: RA administered to aging mice
smiles,measurement,value
"O=C(/C=C/c1ccc(O)c(O)c1)O[C@H](Cc1ccc(O)c(O)c1)C(=O)O [RA, Rosmarinic acid]",catalase (CAT) activity in the brain,increased
same,malondialdehyde (MDA) in the brain,decreasing
same,superoxide dismutase (SOD) activity in the brain,increased
